The IC50 is the concentration needed to halve the response being measured.

Each structure is given as a SMILES string.

The target of the test is biotinylated Avi-POLθ[2-894] (Homo sapiens (Human), UniProt O75417). Briefly: POLθ ATPase assay (ADP-Glo). The conditions noted are these: n=2; read-out: Biochemical ATPase ADPGlo IC50.
Chain of biotinylated Avi-POLθ[2-894] (O75417 2-894): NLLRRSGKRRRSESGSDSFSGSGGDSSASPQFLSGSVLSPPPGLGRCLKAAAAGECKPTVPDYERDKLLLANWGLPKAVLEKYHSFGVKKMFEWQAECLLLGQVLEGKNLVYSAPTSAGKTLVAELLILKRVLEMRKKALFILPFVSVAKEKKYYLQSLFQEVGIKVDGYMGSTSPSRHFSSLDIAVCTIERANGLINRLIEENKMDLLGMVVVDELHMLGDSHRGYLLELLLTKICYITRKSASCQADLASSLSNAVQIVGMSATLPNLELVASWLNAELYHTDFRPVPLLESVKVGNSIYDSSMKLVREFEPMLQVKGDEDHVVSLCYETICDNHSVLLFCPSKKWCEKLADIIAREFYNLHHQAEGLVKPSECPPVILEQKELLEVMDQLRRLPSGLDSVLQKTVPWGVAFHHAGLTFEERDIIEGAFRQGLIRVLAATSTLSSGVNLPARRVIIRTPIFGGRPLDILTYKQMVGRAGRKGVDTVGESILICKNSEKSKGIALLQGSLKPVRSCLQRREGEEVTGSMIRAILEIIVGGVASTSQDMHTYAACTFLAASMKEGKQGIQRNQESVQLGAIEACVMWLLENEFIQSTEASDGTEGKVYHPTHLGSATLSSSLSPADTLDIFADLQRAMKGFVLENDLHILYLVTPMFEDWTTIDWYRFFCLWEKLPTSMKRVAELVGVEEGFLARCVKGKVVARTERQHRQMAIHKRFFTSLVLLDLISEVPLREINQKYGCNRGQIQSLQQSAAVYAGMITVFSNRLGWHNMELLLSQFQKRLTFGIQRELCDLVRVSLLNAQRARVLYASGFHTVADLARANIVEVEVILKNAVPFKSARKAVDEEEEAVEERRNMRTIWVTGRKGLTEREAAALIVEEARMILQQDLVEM
`COc1cnc(Cl)cc1-c1cc(C)ncc1C(=O)Nc1nc2c(s1)CN(C(=O)c1cccnn1)C2` [Example 33, 2′-chloro-5′-methoxy-6-methyl-N-(5-(pyridazine-3-carbonyl)-5,6-dihydro-4H-pyrrolo[3,4-d]thiazol-2-yl)-[4,4′-bipyridine]-3-carboxamide]: the IC50 fell in the range of 1 to 15 nM.

With `COc1cnc(Cl)cc1-c1cc(C)ncc1C(=O)Nc1nc2c(s1)CN(C(=O)c1ncc(C)cn1)C2` [Example 34, 2′-chloro-5′-methoxy-6-methyl-N-(5-(5-methylpyrimidine-2-carbonyl)-5,6-dihydro-4H-pyrrolo[3,4-d]thiazol-2-yl)-[4,4′-bipyridine]-3-carboxamide], the IC50 was in the range of 1 to 15 nM. Consider `COc1cnc(Cl)cc1-c1cc(C)ncc1C(=O)Nc1nc2c(s1)CN(C(=O)c1cnccn1)C2` [Example 41, 2′-chloro-5′-methoxy-6-methyl-N-(5-(pyrazine-2-carbonyl)-5,6-dihydro-4H-pyrrolo[3,4-d]thiazol-2-yl)-[4,4′-bipyridine]-3-carboxamide], for which the IC50 lay within 1 to 15 nM. With `COc1cnc(Cl)cc1-c1cc(C)ncc1C(=O)Nc1nc2c(s1)CN(C(=O)C1CC(N(C)C)C1)C2` (centres unmarked) [Example 43, 2′-chloro-N-(5-(3-(dimethylamino)cyclobutane-1-carbonyl)-5,6-dihydro-4H-pyrrolo[3,4-d]thiazol-2-yl)-5′-methoxy-6-methyl-[4,4′-bipyridine]-3-carboxamide] the figure was 150 to 900 nM. With `COc1cnc(Cl)cc1-c1cc(C)ncc1C(=O)Nc1nc2c(s1)CN(C(=O)c1ccnn1CC(F)(F)F)C2` [Example 46, 2′-chloro-5′-methoxy-6-methyl-N-(5-(1-(2,2,2-trifluoroethyl)-1H-pyrazole-5-carbonyl)-5,6-dihydro-4H-pyrrolo[3,4-d]thiazol-2-yl)-[4,4′-bipyridine]-3-carboxamide] the figure was 1 to 15 nM; with `COc1cnc(Cl)cc1-c1cc(C)ncc1C(=O)Nc1nc2c(s1)CN(C(=O)c1ncn(C)n1)C2` [Example 50, 2′-chloro-5′-methoxy-6-methyl-N-(5-(1-methyl-1H-1,2,4-triazole-3-carbonyl)-5,6-dihydro-4H-pyrrolo[3,4-d]thiazol-2-yl)-[4,4′-bipyridine]-3-carboxamide], 1 to 15 nM. For the compound `COc1cnc(Cl)cc1-c1cc(C)ncc1C(=O)Nc1nc2c(s1)CN(C(=O)c1ccn(CC(F)F)n1)C2` [Example 51, 2′-chloro-N-(5-(1-(2,2-difluoroethyl)-1H-pyrazole-3-carbonyl)-5,6-dihydro-4H-pyrrolo[3,4-d]thiazol-2-yl)-5′-methoxy-6-methyl-[4,4′-bipyridine]-3-carboxamide], the IC50 lay within 1 to 15 nM. With `COc1cnc(Cl)cc1-c1cc(C)ncc1C(=O)Nc1nc2c(s1)CN(C(=O)c1nn(C(F)F)cc1Cl)C2` [Example 55, 2′-chloro-N-(5-(4-chloro-1-(difluoromethyl)-1H-pyrazole-3-carbonyl)-5,6-dihydro-4H-pyrrolo[3,4-d]thiazol-2-yl)-5′-methoxy-6-methyl-[4,4′-bipyridine]-3-carboxamide] the figure was 1 to 15 nM. As for `COc1cnc(Cl)cc1-c1cc(C)ncc1C(=O)Nc1nc2c(s1)CN(C(=O)c1c(C(F)F)nn(C)c1F)C2` [Example 59, 2′-chloro-N-(5-(3-(difluoromethyl)-5-fluoro-1-methyl-1H-pyrazole-4-carbonyl)-5,6-dihydro-4H-pyrrolo[3,4-d]thiazol-2-yl)-5′-methoxy-6-methyl-[4,4′-bipyridine]-3-carboxamide], the figure is 1 to 15 nM; as for `COc1cnc(Cl)cc1-c1cc(C)ncc1C(=O)Nc1nc2c(s1)CN(C(=O)c1ncon1)C2` [Example 60, N-(5-(1,2,4-oxadiazole-3-carbonyl)-5,6-dihydro-4H-pyrrolo[3,4-d]thiazol-2-yl)-2′-chloro-5′-methoxy-6-methyl-[4,4′-bipyridine]-3-carboxamide], 1 to 15 nM; as for `COc1cnc(Cl)cc1-c1cc(C)ncc1C(=O)Nc1nc2c(s1)CN(C(=O)c1cn(C)nc1C(F)(F)F)C2` [Example 61, 2′-chloro-5′-methoxy-6-methyl-N-(5-(1-methyl-3-(trifluoromethyl)-1H-pyrazole-4-carbonyl)-5,6-dihydro-4H-pyrrolo[3,4-d]thiazol-2-yl)-[4,4′-bipyridine]-3-carboxamide], 1 to 15 nM.

In the case of `CCn1cc(C(=O)N2Cc3nc(NC(=O)c4cnc(C)cc4-c4cc(Cl)ncc4OC)sc3C2)cn1` [Example 62, 2′-chloro-N-(5-(1-ethyl-1H-pyrazole-4-carbonyl)-5,6-dihydro-4H-pyrrolo[3,4-d]thiazol-2-yl)-5′-methoxy-6-methyl-[4,4′-bipyridine]-3-carboxamide], the IC50 lay in the range of 15 to 50 nM. For the compound `COc1cnc(Cl)cc1-c1cc(C)ncc1C(=O)Nc1nc2c(s1)CN(C(=O)c1nn(C)cc1C)C2` [Example 65, 2′-chloro-N-(5-(1,4-dimethyl-1H-pyrazole-3-carbonyl)-5,6-dihydro-4H-pyrrolo[3,4-d]thiazol-2-yl)-5′-methoxy-6-methyl-[4,4′-bipyridine]-3-carboxamide], the IC50 was 1 to 15 nM.

`CCn1ccc(C(=O)N2Cc3nc(NC(=O)c4cnc(C)cc4-c4cc(Cl)ncc4OC)sc3C2)n1` [Example 69, 2′-chloro-N-(5-(1-ethyl-1H-pyrazole-3-carbonyl)-5,6-dihydro-4H-pyrrolo[3,4-d]thiazol-2-yl)-5′-methoxy-6-methyl-[4,4′-bipyridine]-3-carboxamide]: the IC50 was 1 to 15 nM. Turning to `COc1cnc(Cl)cc1-c1cc(C)ncc1C(=O)Nc1nc2c(s1)CN(C(=O)c1ncccc1O)C2` [Example 71, 2′-chloro-N-(5-(3-hydroxypicolinoyl)-5,6-dihydro-4H-pyrrolo[3,4-d]thiazol-2-yl)-5′-methoxy-6-methyl-[4,4′-bipyridine]-3-carboxamide], the IC50 is 1 to 15 nM.

Regarding `COc1cnc(Cl)cc1-c1cc(C)ncc1C(=O)Nc1nc2c(s1)CN(C(=O)c1cccc(OC(F)F)n1)C2` [Example 72, 2′-chloro-N-(5-(6-(difluoromethoxy)picolinoyl)-5,6-dihydro-4H-pyrrolo[3,4-d]thiazol-2-yl)-5′-methoxy-6-methyl-[4,4′-bipyridine]-3-carboxamide], the IC50 fell in the range of 1 to 15 nM. As for `COc1cnc(Cl)cc1-c1cc(C)ncc1C(=O)Nc1nc2c(s1)CN(C(=O)c1ccnn1C(C)C)C2` [Example 75, 2′-chloro-N-(5-(1-isopropyl-1H-pyrazole-5-carbonyl)-5,6-dihydro-4H-pyrrolo[3,4-d]thiazol-2-yl)-5′-methoxy-6-methyl-[4,4′-bipyridine]-3-carboxamide], the figure is 1 to 15 nM. With `COc1cnc(Cl)cc1-c1cc(C)ncc1C(=O)Nc1nc2c(s1)CN(C(=O)c1c(C)nn(C)c1C)C2` [Example 76, 2′-chloro-5′-methoxy-6-methyl-N-(5-(1,3,5-trimethyl-1H-pyrazole-4-carbonyl)-5,6-dihydro-4H-pyrrolo[3,4-d]thiazol-2-yl)-[4,4′-bipyridine]-3-carboxamide] the figure was 1 to 15 nM; with `COc1cnc(Cl)cc1-c1cc(C)ncc1C(=O)Nc1nc2c(s1)CN(C(=O)c1ncn(C(C)C)n1)C2` [Example 77, 2′-chloro-N-(5-(1-isopropyl-1H-1,2,4-triazole-3-carbonyl)-5,6-dihydro-4H-pyrrolo[3,4-d]thiazol-2-yl)-5′-methoxy-6-methyl-[4,4′-bipyridine]-3-carboxamide], 15 to 50 nM; with `COc1cnc(Cl)cc1-c1cc(C)ncc1C(=O)Nc1nc2c(s1)CN(C(=O)c1cnn(C3CC3)c1)C2` [Example 80, 2′-chloro-N-(5-(1-cyclopropyl-1H-pyrazole-4-carbonyl)-5,6-dihydro-4H-pyrrolo[3,4-d]thiazol-2-yl)-5′-methoxy-6-methyl-[4,4′-bipyridine]-3-carboxamide], 1 to 15 nM. As for `COc1cnc(Cl)cc1-c1cc(C)ncc1C(=O)Nc1nc2c(s1)CN(C(=O)c1cnn(CC(F)(F)F)c1)C2` [Example 83, 2′-chloro-5′-methoxy-6-methyl-N-(5-(1-(2,2,2-trifluoroethyl)-1H-pyrazole-4-carbonyl)-5,6-dihydro-4H-pyrrolo[3,4-d]thiazol-2-yl)-[4,4′-bipyridine]-3-carboxamide], the figure is 15 to 50 nM; as for `COc1cnc(Cl)cc1-c1cc(C)ncc1C(=O)Nc1nc2c(s1)CN(C(=O)c1cnn(C(C)C)c1)C2` [Example 85, 2′-chloro-N-(5-(1-isopropyl-1H-pyrazole-4-carbonyl)-5,6-dihydro-4H-pyrrolo[3,4-d]thiazol-2-yl)-5′-methoxy-6-methyl-[4,4′-bipyridine]-3-carboxamide], 1 to 15 nM; as for `COc1cnc(Cl)cc1-c1cc(C)ncc1C(=O)Nc1nc2c(s1)CN(C(=O)c1cnn(C)c1C)C2` [Example 87, 2′-chloro-N-(5-(1,5-dimethyl-1H-pyrazole-4-carbonyl)-5,6-dihydro-4H-pyrrolo[3,4-d]thiazol-2-yl)-5′-methoxy-6-methyl-[4,4′-bipyridine]-3-carboxamide], 15 to 50 nM. As for `COc1cnc(Cl)cc1-c1cc(C)ncc1C(=O)Nc1nc2c(s1)CN(C(=O)c1cnn(C)c1C(F)F)C2` [Example 91, 2′-chloro-N-(5-(5-(difluoromethyl)-1-methyl-1H-pyrazole-4-carbonyl)-5,6-dihydro-4H-pyrrolo[3,4-d]thiazol-2-yl)-5′-methoxy-6-methyl-[4,4′-bipyridine]-3-carboxamide], the IC50 is 1 to 15 nM.

For the compound `COc1cnc(Cl)cc1-c1cc(C)ncc1C(=O)Nc1nc2c(s1)CN(C(=O)c1cc(O)n(C)n1)C2` [Example 92, 2′-chloro-N-(5-(5-hydroxy-1-methyl-1H-pyrazole-3-carbonyl)-5,6-dihydro-4H-pyrrolo[3,4-d]thiazol-2-yl)-5′-methoxy-6-methyl-[4,4′-bipyridine]-3-carboxamide], the IC50 was in the range of 15 to 50 nM. As for `COc1cnc(Cl)cc1-c1cc(C)ncc1C(=O)Nc1nc2c(s1)CN(C(=O)[C@H]1CC[C@H](O)CC1)C2` [Example 96, 2′-chloro-N-(5-((1r,4r)-4-hydroxycyclohexane-1-carbonyl)-5,6-dihydro-4H-pyrrolo[3,4-d]thiazol-2-yl)-5′-methoxy-6-methyl-[4,4′-bipyridine]-3-carboxamide], the figure is 1 to 15 nM.

The values are drawn from US20250230171A1 (MOMA Therapeutics, Inc., priority 2023, published 2025).
